Legend:
Assay type in all cases: cell-based
E. faecalis = test: paper disc corrected zone of inhibition (CZOI) on Mueller Hinton agar
Experimental: (§1) The compounds tested in Example 1 were tested to determine their capacity to inhibit the growth of a variety of Gram-negative bacteria, Gram-positive bactgeria, fungi and yeast. In an exemplary method, Mueller Hinton agar plates were streaked with 500 μL of a 10^5 colony-forming units/mL culture and allowed to dry for at least one minute. A sterile paper disc (6 mm diameter) was then placed in the middle of each plate using sterile forceps. Twenty microliters of a solution of a known concentration of a test compound in filter-sterilized 95% ethanol were pipetted onto each test plate. Two streaked plates served as positive inhibitory controls and contained 6 mm sterile paper discs with standard tetracycline solutions. Two additional plates served as negative inhibition controls and each contained 6 mm sterile paper discs with 20 μL of filter-sterilized 95% ethanol. Two more plates served as positive growth controls and contained no paper disc or added antibacterial agent. The plates were incubated at 32.5±2° C. for 24±4 hours, after which the corrected zone of inhibition (“CZOI”) was determined as follows: For each plate, the length Y2 and width X2 of the test sample (paper disc) and length Y1 and width X1 of the clear zone were measured (FIG. 1). The CZOI was calculated from these values as shown by the equation below: [formula]

C. striatum = test: as above
Experimental: as §1

S. epidermidis = test: as above
Experimental: as §1

C. albicans = test: as above
Experimental: as §1

A. brasiliensis = test: as above
Experimental: as §1

P. aeroginosa = test: as above
Experimental: as §1

S. aureus = test: as above
Experimental: as §1

E. coli = test: as above
Experimental: as §1

K. pneumoniae = test: as above
Experimental: as §1

P. acnes = test: agar dilution method: growth index and MIC on P. acnes (single compounds and combinations)
Experimental: Several compounds including fatty acids such as DGLA, 15-OHEPA, and 15-HETrE were tested to determine their capacity to inhibit the growth of P. acnes. In an exemplary method, an agar dilution method was used to determine the minimum inhibitory concentration (MIC) of each tested compound. Briefly, the agar dilution method involved preparing a series of concentrations of each compound (e.g., nicotinamide, benzoyl peroxide, adapalene, metronidazole, DGLA, 15-OHEPA, and 15-HETrE) in a Reinforced Clostridial Agar (RCA) media that facilitates growth of P. acnes under anaerobic conditions. An inoculum of P. acnes was prepared by incubation of P. acnes for approximately seven days at 35-37° C. to achieve a ≧1.0 OD600 inoculum of P. acnes in RCM broth. A portion of this inoculum was then added to the surface of each plate as a 10 μL spot and incubated at 35-37° C. for 72 hours or more. Growth of P. acnes was then observed and compared to control plates in which no compound has been added, and positive inhibition plates prepared with erythromycin. […] The growth of P. acnes in the presence of nicotinamide, benzoyl peroxide, adapalene, metronidazole, DGLA, 15-OHEPA, and 15-HETrE was determined with varying concentrations of the compound (see, Table 2). Next, the MIC was determined as the concentration at which a marked reduction (+) occurs in the appearance of growth on the test plate (as per Clinical and Laboratory Standards Institute M11-A7). The compounds tested singly in Example 1 were tested in combination with one another to determine the capacity of the combination to inhibit the growth of P. acnes. In an exemplary method, the MIC was determined for each of the combination as described in Example 1. Briefly, test combinations included DGLA with nicotinamide, benzoyl peroxide, adapalene, or metronidazole; 15-HETrE with nicotinamide, benzoyl peroxide, adapalene, or metronidazole; and 15-OHEPA with nicotinamide, benzoyl peroxide, adapalene, or metronidazole. The tables below show the growth of P. acnes in the presence of 0.4 or 1.0 mg/mL DGLA with varying concentrations of nicotinamide, benzoyl peroxide, adapalene, or metronidazole (Table 3); the growth of P. acnes in the presence of 0.01 or 0.05 mg/mL 15-HETrE with varying concentrations of nicotinamide, benzoyl peroxide, adapalene, or metronidazole (Table 5); and the growth of P. acnes in the presence of 0.5 or 0.1 mg/mL 15-OHEPA with varying concentrations of nicotinamide, benzoyl peroxide, adapalene, or metronidazole (Table 7).

Q: Which results are given for `CCC=CCC(O)C=CC=CCC=CCC=CCCCC(=O)O` (centres unmarked) [15-OHEPA, 15-Hydroxy-eicosa-5,8,11,13,17-pentaenoic acid]?
A: Average CZOI (E. faecalis; 0.01 mg/mL): 2.5 mm; Average CZOI (E. faecalis; 0.025 mg/mL): 1.5 mm; Average CZOI (E. faecalis; 0.05 mg/mL): 2.25 mm; Average CZOI (E. faecalis; 0.075 mg/mL): 1.25 mm; Average CZOI (E. faecalis; 0.1 mg/mL): 1.5 mm; Lowest Concentration With Observed Inhibition (E. faecalis; E. faecalis): 0.001 mg/mL; Most Effective Concentration Observed (E. faecalis; E. faecalis): 0.001 mg/mL; Average CZOI (C. striatum; 0.01 mg/mL): 3.25 mm; Average CZOI (C. striatum; 0.025 mg/mL): 3 mm; Average CZOI (C. striatum; 0.05 mg/mL): 3.5 mm; Average CZOI (C. striatum; 0.075 mg/mL): 2 mm; Average CZOI (C. striatum; 0.1 mg/mL): 1.5 mm; Lowest Concentration With Observed Inhibition (C. striatum; C. striatum): 0.001 mg/mL; Most Effective Concentration Observed (C. striatum; C. striatum): 0.05 mg/mL; Average CZOI (S. epidermidis; 0.01 mg/mL): 1 mm; Average CZOI (S. epidermidis; 0.025 mg/mL): 2 mm; Average CZOI (S. epidermidis; 0.05 mg/mL): 2.25 mm; Average CZOI (S. epidermidis; 0.075 mg/mL): 3 mm; Average CZOI (S. epidermidis; 0.1 mg/mL): 1.25 mm; Lowest Concentration With Observed Inhibition (S. epidermidis; S. epidermidis): 0.001 mg/mL; Most Effective Concentration Observed (S. epidermidis; S. epidermidis): 0.075 mg/mL; Average CZOI (C. albicans; 0.01 mg/mL): 1 mm; Average CZOI (C. albicans; 0.025 mg/mL): 1.5 mm; Average CZOI (C. albicans; 0.05 mg/mL): 2.5 mm; Average CZOI (C. albicans; 0.075 mg/mL): 2.25 mm; Average CZOI (C. albicans; 0.1 mg/mL): 1 mm; Lowest Concentration With Observed Inhibition (C. albicans; C. albicans): 0.001 mg/mL; Most Effective Concentration Observed (C. albicans; C. albicans): 0.05 mg/mL; Average CZOI (A. brasiliensis; 0.01 mg/mL): 0.25 mm; Average CZOI (A. brasiliensis; 0.025 mg/mL): 1.75 mm; Average CZOI (A. brasiliensis; 0.05 mg/mL): 2 mm; Average CZOI (A. brasiliensis; 0.075 mg/mL): 3.75 mm; Average CZOI (A. brasiliensis; 0.1 mg/mL): 2.75 mm; Lowest Concentration With Observed Inhibition (A. brasiliensis; A. brasiliensis): 0.001 mg/mL; Most Effective Concentration Observed (A. brasiliensis; A. brasiliensis): 0.075 mg/mL; Average CZOI (P. aeroginosa; 0.01 mg/mL): 1.25 mm; Average CZOI (P. aeroginosa; 0.025 mg/mL): 1 mm; Average CZOI (P. aeroginosa; 0.05 mg/mL): 1.5 mm; Average CZOI (P. aeroginosa; 0.075 mg/mL): 1.75 mm; Average CZOI (P. aeroginosa; 0.1 mg/mL): 1.5 mm; Lowest Concentration With Observed Inhibition (P. aeroginosa; P. aeroginosa): 0.001 mg/mL; Most Effective Concentration Observed (P. aeroginosa; P. aeroginosa): 0.075 mg/mL; Average CZOI (S. aureus; 0.01 mg/mL): 0 mm; Average CZOI (S. aureus; 0.025 mg/mL): 1 mm; Average CZOI (S. aureus; 0.05 mg/mL): 1.25 mm; Average CZOI (S. aureus; 0.075 mg/mL): 2.25 mm; Average CZOI (S. aureus; 0.1 mg/mL): 2 mm; Lowest Concentration With Observed Inhibition (S. aureus; S. aureus): 0.025 mg/mL; Most Effective Concentration Observed (S. aureus; S. aureus): 0.075 mg/mL; Average CZOI (E. coli; 0.01 mg/mL): 2 mm; Average CZOI (E. coli; 0.025 mg/mL): 1.25 mm; Average CZOI (E. coli; 0.05 mg/mL): 1.25 mm; Average CZOI (E. coli; 0.075 mg/mL): 1.75 mm; Average CZOI (E. coli; 0.1 mg/mL): 1.5 mm; Lowest Concentration With Observed Inhibition (E. coli; E. coli): 0.001 mg/mL; Most Effective Concentration Observed (E. coli; E. coli): 0.001 mg/mL; Average CZOI (K. pneumoniae; 0.01 mg/mL): 2.25 mm; Average CZOI (K. pneumoniae; 0.025 mg/mL): 1.5 mm; Average CZOI (K. pneumoniae; 0.05 mg/mL): 1 mm; Average CZOI (K. pneumoniae; 0.075 mg/mL): 1.75 mm; Average CZOI (K. pneumoniae; 0.1 mg/mL): 2.25 mm; Lowest Concentration With Observed Inhibition (K. pneumoniae; K. pneumoniae): 0.001 mg/mL; Most Effective Concentration Observed (K. pneumoniae; K. pneumoniae): 0.001 mg/mL; effect on growth of P. acnes on its own (P. acnes; 0.05 mg/mL): no effect on its own; MIC (P. acnes; Cutibacterium acnes, compound alone, read-out: MIC (mg/mL) as per P-11-0007 or P-11-0008 Addendum A): 0.05 to 0.075 mg/mL

Source: patent publication US20140171358A1, “ANTIMICROBIAL COMPOSITIONS COMPRISING DGLA AND NEOMYCIN SULFATE AND METHODS OF USE THEREOF” (Dignity Sciences Limited, priority 2012, published 2014)
